Test results reported in PubChem BioAssay (NCI).
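The compound was tested at five concentrations on cells cultured in 96-well plates, with a 48-hour exposure period. TGI is the concentration that stops growth completely.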

Columns and labels:
Experiment in all cases: NCI-60 cell line screen, 48 h
CCRF-CEM leukemia = system: CCRF-CEM leukemia
SF-268 CNS = system: SF-268 CNS
SNB-75 CNS = system: SNB-75 CNS
K-562 leukemia = system: K-562 leukemia
DU-145 prostate = system: DU-145 prostate
SK-MEL-2 melanoma = system: SK-MEL-2 melanoma
HOP-92 NSCLC = system: HOP-92 NSCLC
SW-620 colon = system: SW-620 colon
UO-31 renal = system: UO-31 renal
MALME-3M melanoma = system: MALME-3M melanoma
CAKI-1 renal = system: CAKI-1 renal
PC-3 prostate = system: PC-3 prostate
OVCAR-3 ovarian = system: OVCAR-3 ovarian
IGROV1 ovarian = system: IGROV1 ovarian
NCI-H226 lung = system: NCI-H226 lung
SK-MEL-28 melanoma = system: SK-MEL-28 melanoma
SK-MEL-5 melanoma = system: SK-MEL-5 melanoma
MDA-MB-231 breast = system: MDA-MB-231 breast
T-47D breast = system: T-47D breast
HCC-2998 colon = system: HCC-2998 colon

How did the TGI (CCRF-CEM leukemia) turn out when C/C=C1\CC2C(=O)CCC2C2c3ccccc3OC12 (stereo not given) was run?
The TGI was over 100 µM.

And the TGI (SF-268 CNS)?
The TGI was over 100 µM.

And the TGI (SNB-75 CNS)?
The TGI was over 100 µM.

And the TGI (K-562 leukemia)?
Its TGI is over 100 µM.

And the TGI (DU-145 prostate)?
Its TGI is 10.7 µM.

And the TGI (SK-MEL-2 melanoma)?
The TGI was over 100 µM.

And the TGI (HOP-92 NSCLC)?
Its TGI is over 100 µM.

What about the TGI (SW-620 colon) of the same compound?
Its TGI is over 100 µM.

And the TGI (UO-31 renal)?
Its TGI is over 100 µM.

And the TGI (MALME-3M melanoma)?
The TGI was over 100 µM.

What about the TGI (CAKI-1 renal) of the same compound?
Its TGI is over 100 µM.

And the TGI (PC-3 prostate)?
Its TGI is over 100 µM.

What about the TGI (OVCAR-3 ovarian) of the same compound?
Its TGI is over 100 µM.

What about the TGI (IGROV1 ovarian) of the same compound?
The TGI was over 100 µM.

What about the TGI (NCI-H226 lung) of the same compound?
Its TGI is over 100 µM.

What about the TGI (SK-MEL-28 melanoma) of the same compound?
The TGI was over 100 µM.

And the TGI (SK-MEL-5 melanoma)?
Its TGI is over 100 µM.

What about the TGI (MDA-MB-231 breast) of the same compound?
The TGI was over 100 µM.

Which TGI (CCRF-CEM leukemia) does the source give for CCOC(=O)C1(N)CCc2[nH][nH]c(=O)c2C1 (stereo not given) here?
Its TGI is over 100 µM.

And the TGI (SNB-75 CNS)?
The TGI was over 100 µM.

And the TGI (K-562 leukemia)?
The TGI was over 100 µM.

What about the TGI (T-47D breast) of the same compound?
Its TGI is over 100 µM.

And the TGI (SK-MEL-2 melanoma)?
The TGI was over 100 µM.

What about the TGI (HOP-92 NSCLC) of the same compound?
Its TGI is over 100 µM.

And the TGI (SW-620 colon)?
Its TGI is over 100 µM.

What about the TGI (UO-31 renal) of the same compound?
The TGI was over 100 µM.

And the TGI (MALME-3M melanoma)?
Its TGI is over 100 µM.

What about the TGI (CAKI-1 renal) of the same compound?
Its TGI is over 100 µM.

What about the TGI (PC-3 prostate) of the same compound?
The TGI was over 100 µM.

And the TGI (OVCAR-3 ovarian)?
The TGI was over 100 µM.

What about the TGI (IGROV1 ovarian) of the same compound?
The TGI was over 100 µM.

And the TGI (NCI-H226 lung)?
Its TGI is over 100 µM.

And the TGI (SK-MEL-28 melanoma)?
Its TGI is over 100 µM.

And the TGI (HCC-2998 colon)?
Its TGI is over 100 µM.

And the TGI (SK-MEL-5 melanoma)?
The TGI was over 100 µM.

What about the TGI (MDA-MB-231 breast) of the same compound?
The TGI was over 100 µM.

What does the source list for CC(C)CC(=O)NC(C(=O)NC(C(=O)NC(CC(C)C)C(O)CC(=O)NC(C)C(=O)NC(CC(C)C)C(O)CC(=O)O)C(C)C)C(C)C (stereo not given)?
TGI (CCRF-CEM leukemia): > 100 µM; TGI (SF-268 CNS): > 100 µM; TGI (SNB-75 CNS): > 100 µM; TGI (K-562 leukemia): > 100 µM; TGI (DU-145 prostate): > 100 µM; TGI (SK-MEL-2 melanoma): > 100 µM; TGI (HOP-92 NSCLC): > 100 µM; TGI (SW-620 colon): > 100 µM; TGI (UO-31 renal): > 100 µM; TGI (MALME-3M melanoma): > 100 µM; TGI (CAKI-1 renal): > 100 µM; TGI (PC-3 prostate): > 100 µM; TGI (OVCAR-3 ovarian): > 100 µM; TGI (IGROV1 ovarian): > 100 µM; TGI (NCI-H226 lung): > 100 µM; TGI (SK-MEL-28 melanoma): > 100 µM; TGI (HCC-2998 colon): > 100 µM; TGI (SK-MEL-5 melanoma): > 100 µM; TGI (MDA-MB-231 breast): > 100 µM

With O=C(c1nc2ccccc2[nH]c1=O)C(O)c1ccco1 (stereo not given) as the compound, how does the TGI (CCRF-CEM leukemia) read?
The TGI was over 100 µM.

And the TGI (SF-268 CNS)?
Its TGI is over 100 µM.

What about the TGI (SNB-75 CNS) of the same compound?
Its TGI is over 100 µM.

And the TGI (K-562 leukemia)?
The TGI was over 100 µM.

And the TGI (SK-MEL-2 melanoma)?
Its TGI is over 100 µM.

And the TGI (HOP-92 NSCLC)?
Its TGI is over 100 µM.

And the TGI (SW-620 colon)?
The TGI was over 100 µM.

What about the TGI (UO-31 renal) of the same compound?
The TGI was over 100 µM.

And the TGI (MALME-3M melanoma)?
Its TGI is over 100 µM.

And the TGI (OVCAR-3 ovarian)?
Its TGI is over 100 µM.

And the TGI (IGROV1 ovarian)?
The TGI was over 100 µM.

What about the TGI (NCI-H226 lung) of the same compound?
The TGI was over 100 µM.

What about the TGI (SK-MEL-28 melanoma) of the same compound?
The TGI was over 100 µM.

And the TGI (HCC-2998 colon)?
The TGI was over 100 µM.

What about the TGI (SK-MEL-5 melanoma) of the same compound?
Its TGI is over 100 µM.

C/C(CC(=O)Nc1cc(C)ccc1C)=N/N=C(N)N was tested. Which TGI (CCRF-CEM leukemia) did it give?
Its TGI is over 100 µM.

What about the TGI (SF-268 CNS) of the same compound?
Its TGI is over 100 µM.

What about the TGI (SNB-75 CNS) of the same compound?
The TGI was over 100 µM.

What about the TGI (K-562 leukemia) of the same compound?
The TGI was over 100 µM.

What about the TGI (SK-MEL-2 melanoma) of the same compound?
Its TGI is over 100 µM.

What about the TGI (HOP-92 NSCLC) of the same compound?
Its TGI is over 100 µM.

And the TGI (SW-620 colon)?
Its TGI is over 100 µM.

And the TGI (UO-31 renal)?
The TGI was over 100 µM.

What about the TGI (MALME-3M melanoma) of the same compound?
The TGI was over 100 µM.

What about the TGI (OVCAR-3 ovarian) of the same compound?
Its TGI is over 100 µM.

And the TGI (IGROV1 ovarian)?
Its TGI is over 100 µM.

And the TGI (NCI-H226 lung)?
Its TGI is over 100 µM.

What about the TGI (SK-MEL-28 melanoma) of the same compound?
Its TGI is over 100 µM.

What about the TGI (HCC-2998 colon) of the same compound?
The TGI was over 100 µM.

And the TGI (SK-MEL-5 melanoma)?
Its TGI is over 100 µM.

For C=C/C(C)=C\CC1[C@](C)(O)CC[C@H]2C(C)(C)C(O)CC[C@]12C (stereo not given in full), which TGI (CCRF-CEM leukemia) is on record?
Its TGI is over 100 µM.

What about the TGI (SF-268 CNS) of the same compound?
Its TGI is over 100 µM.

And the TGI (SNB-75 CNS)?
Its TGI is over 100 µM.

What about the TGI (K-562 leukemia) of the same compound?
The TGI was over 100 µM.

What about the TGI (DU-145 prostate) of the same compound?
Its TGI is over 100 µM.

What about the TGI (SK-MEL-2 melanoma) of the same compound?
Its TGI is over 100 µM.

And the TGI (HOP-92 NSCLC)?
The TGI was over 100 µM.

What about the TGI (SW-620 colon) of the same compound?
The TGI was over 100 µM.

And the TGI (UO-31 renal)?
The TGI was over 100 µM.

And the TGI (MALME-3M melanoma)?
Its TGI is over 100 µM.

What about the TGI (CAKI-1 renal) of the same compound?
Its TGI is over 100 µM.

And the TGI (PC-3 prostate)?
Its TGI is over 100 µM.

What about the TGI (OVCAR-3 ovarian) of the same compound?
The TGI was over 100 µM.

What about the TGI (IGROV1 ovarian) of the same compound?
Its TGI is over 100 µM.

And the TGI (NCI-H226 lung)?
The TGI was over 100 µM.

And the TGI (SK-MEL-28 melanoma)?
The TGI was over 100 µM.

And the TGI (SK-MEL-5 melanoma)?
The TGI was over 100 µM.

What about the TGI (MDA-MB-231 breast) of the same compound?
The TGI was over 100 µM.

For CCOP12(OCC)NC(=O)OC1(C(F)(F)F)c1ccccc1O2 (stereo not given), which TGI (CCRF-CEM leukemia) is on record?
The TGI was over 100 µM.

And the TGI (SF-268 CNS)?
Its TGI is over 100 µM.

And the TGI (SNB-75 CNS)?
The TGI was over 100 µM.

And the TGI (K-562 leukemia)?
The TGI was over 100 µM.

What about the TGI (SK-MEL-2 melanoma) of the same compound?
The TGI was over 100 µM.

What about the TGI (UO-31 renal) of the same compound?
The TGI was over 100 µM.

And the TGI (MALME-3M melanoma)?
The TGI was over 100 µM.

What about the TGI (OVCAR-3 ovarian) of the same compound?
Its TGI is over 100 µM.

And the TGI (IGROV1 ovarian)?
Its TGI is over 100 µM.

And the TGI (NCI-H226 lung)?
Its TGI is over 100 µM.

And the TGI (SK-MEL-28 melanoma)?
Its TGI is over 100 µM.

What about the TGI (SK-MEL-5 melanoma) of the same compound?
Its TGI is over 100 µM.
